# Data reported in patent publication US11400091B2, “AXL kinase inhibitors and use of the same” (Sumitomo Pharma Oncology, Inc., priority 2018, dated 2022).
# Experiments:
# [1] = tested on: colorectal carcinoma (CRC) cell lines; assay: CRC cell line viability (CellTiter-Glo); type: cell-based; settings: 72 hrs; independent of KRAS mutation status
# [2] = Single dose toxicity study; type: in vivo; settings: single oral 150 mg/kg (free base equivalent); by the end of the recovery period
# Protocol: The FB dose levels evaluated were 20, 50, and 150 mg/kg. The test articles were formulated with 1% Tween 80/5% TPGS/Sterile Water for Injection (v/v/v) and the study designed as indicated in Table 15 below:
# Endpoints in the study consisted of mortality checks, clinical observations, body weight measurements and toxicokinetics. Following a 7-day post-dose observation period, animals were euthanized, necropsied and macroscopic observations recorded.
# human serum albumin = target: T1, human serum albumin (Homo sapiens, UniProt P02768); assay: Serum albumin binding, dialysis of human plasma; type: in vitro ADME
# T1 construct: were determined using human plasma in a dialysis plate-based assay; from tissue; host or cells: human plasma
# T1 sequence (P02768 25-609): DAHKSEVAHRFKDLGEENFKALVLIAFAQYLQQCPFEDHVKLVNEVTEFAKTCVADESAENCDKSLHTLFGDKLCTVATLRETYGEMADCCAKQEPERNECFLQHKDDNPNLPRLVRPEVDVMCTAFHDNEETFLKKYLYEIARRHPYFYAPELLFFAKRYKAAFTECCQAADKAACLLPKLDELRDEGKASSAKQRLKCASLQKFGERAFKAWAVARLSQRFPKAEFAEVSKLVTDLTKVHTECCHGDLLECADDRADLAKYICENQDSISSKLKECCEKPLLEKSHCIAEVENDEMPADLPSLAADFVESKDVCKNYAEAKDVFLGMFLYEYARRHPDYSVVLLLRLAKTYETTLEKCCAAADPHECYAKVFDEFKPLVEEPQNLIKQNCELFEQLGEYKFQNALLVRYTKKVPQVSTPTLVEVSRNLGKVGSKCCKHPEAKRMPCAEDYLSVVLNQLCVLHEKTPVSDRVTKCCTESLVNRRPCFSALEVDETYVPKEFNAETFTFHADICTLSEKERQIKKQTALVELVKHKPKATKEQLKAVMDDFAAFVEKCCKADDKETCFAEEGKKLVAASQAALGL
compound,measurement,setting,value
"CN1CCN(Cc2ccc(Nc3ncc(Cl)c(Nc4ccccc4S(=O)(=O)N(C)C)n3)cc2)CC1 [compound of structure (I), 2-((5-chloro-2-((4-((4-methylpiperazin-1-yl)methyl)phenyl)amino)pyrimidin-4-yl)amino)-N,N-dimethylbenzenesulfonamide]",IC50,[1],4.5 to 123 nM
same,mortality,[2],100%
same,recovery,"human serum albumin; human plasma, read-out: recovery of protein bound drug",80.3%
same,fraction unbound,human serum albumin; plasma,0.07
